For one assay, the target named is T1, FLT3 (Homo sapiens, UniProt P36888).
T1 sequence (P36888 27-993): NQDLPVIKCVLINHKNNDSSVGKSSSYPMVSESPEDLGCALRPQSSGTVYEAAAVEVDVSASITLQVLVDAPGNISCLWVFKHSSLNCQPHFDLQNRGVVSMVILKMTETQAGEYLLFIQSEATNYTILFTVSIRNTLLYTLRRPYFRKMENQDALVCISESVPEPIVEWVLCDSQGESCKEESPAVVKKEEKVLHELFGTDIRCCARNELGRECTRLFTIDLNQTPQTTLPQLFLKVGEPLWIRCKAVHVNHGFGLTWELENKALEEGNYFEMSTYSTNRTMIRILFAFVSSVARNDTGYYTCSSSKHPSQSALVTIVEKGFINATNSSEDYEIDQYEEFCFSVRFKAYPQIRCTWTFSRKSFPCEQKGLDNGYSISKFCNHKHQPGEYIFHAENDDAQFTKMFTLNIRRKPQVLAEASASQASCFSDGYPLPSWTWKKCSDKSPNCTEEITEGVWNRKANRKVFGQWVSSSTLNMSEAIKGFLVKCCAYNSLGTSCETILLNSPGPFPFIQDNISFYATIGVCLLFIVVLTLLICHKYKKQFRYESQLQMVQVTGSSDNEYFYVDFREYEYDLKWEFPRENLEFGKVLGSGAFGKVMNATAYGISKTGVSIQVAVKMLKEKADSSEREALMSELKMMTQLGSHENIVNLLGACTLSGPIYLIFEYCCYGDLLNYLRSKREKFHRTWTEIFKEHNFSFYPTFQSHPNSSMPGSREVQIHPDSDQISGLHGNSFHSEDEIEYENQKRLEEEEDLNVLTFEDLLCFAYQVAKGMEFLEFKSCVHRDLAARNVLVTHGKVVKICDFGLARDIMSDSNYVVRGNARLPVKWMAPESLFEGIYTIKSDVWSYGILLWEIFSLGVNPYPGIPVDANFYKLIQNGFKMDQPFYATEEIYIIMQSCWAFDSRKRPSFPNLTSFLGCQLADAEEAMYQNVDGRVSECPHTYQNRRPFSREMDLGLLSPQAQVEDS
Description: TR-FRET kinase activity assay, FLT3. Format: biochemical. Particulars: ATP at Km, 60 minutes. In short, it runs like this:
(§1)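 Enzyme, fluorescent peptide substrate and compound were mixed, and the reaction was started with ATP at each kinase's Km, in 50 mM HEPES pH 7.5, 10 mM MgCl2, 1 mM EGTA, 0.01% Brij 35, 1 mM DTT at RT. After 60 minutes EDTA quench, Eu-labelled phospho-specific antibody was added for 30 minutes, and IC50 was derived from TR-FRET signal loss.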
A general note: Time-resolved FRET reads energy transfer from a long-lived donor to a nearby acceptor.

The target of another assay is T2, MERTK (Homo sapiens, UniProt Q12866).
T2 sequence (Q12866 21-999): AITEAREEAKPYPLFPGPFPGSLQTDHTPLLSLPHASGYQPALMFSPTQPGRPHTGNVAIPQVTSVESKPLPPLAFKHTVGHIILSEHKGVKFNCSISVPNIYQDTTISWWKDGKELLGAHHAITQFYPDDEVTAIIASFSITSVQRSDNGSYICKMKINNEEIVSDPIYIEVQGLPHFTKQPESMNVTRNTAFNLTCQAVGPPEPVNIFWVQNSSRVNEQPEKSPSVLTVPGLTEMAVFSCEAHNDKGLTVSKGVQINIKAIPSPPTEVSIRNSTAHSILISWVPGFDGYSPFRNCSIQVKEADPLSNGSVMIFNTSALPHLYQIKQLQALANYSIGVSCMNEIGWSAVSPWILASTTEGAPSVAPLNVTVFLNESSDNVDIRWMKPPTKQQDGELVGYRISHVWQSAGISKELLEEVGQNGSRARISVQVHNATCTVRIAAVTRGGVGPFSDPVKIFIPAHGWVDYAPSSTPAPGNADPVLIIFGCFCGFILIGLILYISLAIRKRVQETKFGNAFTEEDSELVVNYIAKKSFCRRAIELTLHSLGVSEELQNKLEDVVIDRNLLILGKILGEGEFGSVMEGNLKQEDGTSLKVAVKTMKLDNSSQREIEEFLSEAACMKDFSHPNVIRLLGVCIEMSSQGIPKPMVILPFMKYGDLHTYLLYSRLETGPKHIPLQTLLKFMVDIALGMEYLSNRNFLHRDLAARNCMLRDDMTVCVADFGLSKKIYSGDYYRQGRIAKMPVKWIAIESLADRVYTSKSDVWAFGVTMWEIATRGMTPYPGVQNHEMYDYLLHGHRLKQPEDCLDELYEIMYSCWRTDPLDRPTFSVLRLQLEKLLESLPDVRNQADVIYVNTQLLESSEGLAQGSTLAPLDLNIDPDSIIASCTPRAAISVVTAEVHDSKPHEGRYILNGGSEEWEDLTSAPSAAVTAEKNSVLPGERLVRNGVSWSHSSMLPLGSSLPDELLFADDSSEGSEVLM
Briefly: TR-FRET kinase activity assay, MERTK. Format: biochemical. Conditions: for IC50: TR-FRET activity assay, ATP at Km, 60 minutes, read-out: Mer IC50; for FLT3/Mer ratio (FLT3 IC50/Mer IC50): ratio of Mer to FLT3: FLT3 IC50/Mer IC50. A digest of the protocol:
as §1

The IC50 is the concentration needed to halve the response being measured.

On to `COCC(C)Nc1ncc2c(-c3ccc(C(C)N4CCOCC4)cc3)cc(C3CCC(O)CC3)n2n1` (mixture of isomers) [Compound 180], for which the IC50 against FLT3 lay in the range of 100 to 1000 nM. Further, on MERTK, the IC50 is at most 100 nM; the “FLT3/Mer ratio (FLT3 IC50/Mer IC50)” value is “++ (“++” represents a ratio of between 10 and 100)”.
In the case of `CC(Nc1ncc2c(-c3ccc(CN4CCN(C)CC4)cc3)cc([C@H]3CC[C@H](O)CC3)n2n1)C(F)F` (mixture of isomers) [Compound 148], on FLT3, the IC50 is 100 to 1000 nM. Besides, at MERTK, the IC50 was at most 100 nM and the “FLT3/Mer ratio (FLT3 IC50/Mer IC50)” value is listed as “+++ (“+++” represents a ratio of >100)”.
Take `CCCCC[C@H](C)Nc1ncc2c(-c3ccc(S(=O)(=O)N4CCOCC4)cc3)cc([C@H]3CC[C@H](O)CC3)n2n1` [Compound 102, (1S,4r)-4-(2-((S)-heptan-2-ylamino)-5-(4-(morpholinosulfonyl)phenyl)pyrrolo[2,1-f][1,2,4]triazin-7-yl)cyclohexanol]: the figures for the IC50 against FLT3 and at MERTK were 100 to 1000 nM and at most 100 nM, respectively. The “FLT3/Mer ratio (FLT3 IC50/Mer IC50)” value on MERTK was “++ (“++” represents a ratio of between 10 and 100)”.
`COC[C@H](C)Nc1ncc2c(-c3ccc(C(=O)N4CCN(C)CC4)cc3)cc([C@H]3CC[C@H](O)CC3)n2n1` [Compound 144]: the IC50 on FLT3 was 100 to 1000 nM. In addition, on MERTK, the IC50 was at most 100 nM and the “FLT3/Mer ratio (FLT3 IC50/Mer IC50)” value was “+++ (“+++” represents a ratio of >100)”.
At FLT3, `CC(CC#N)Nc1ncc2c(-c3ccc(CN4CCN(C)CC4)cc3)cc(C3CCC(O)CC3)n2n1` (stereo not drawn) [Compound 145] yielded a half-inhibitory concentration (IC50) of at most 100 nM. Further, at MERTK, the IC50 is at most 100 nM; the “FLT3/Mer ratio (FLT3 IC50/Mer IC50)” value is “++ (“++” represents a ratio of between 10 and 100)”.
At FLT3, `COC[C@H](C)Nc1ncc2c(-c3ccnc(C)c3)cc([C@H]3CC[C@H](O)CC3)n2n1` [Compound 146] returned a concentration for half-maximal inhibition (IC50) of 1000 to 10000 nM. On MERTK, the IC50 is at most 100 nM and the “FLT3/Mer ratio (FLT3 IC50/Mer IC50)” value is “+++ (“+++” represents a ratio of >100)”.
For `CNC(=O)c1ccc(-c2cc([C@H]3CC[C@H](O)CC3)n3nc(N[C@@H](C)COC)ncc23)cn1` [Compound 147], in that order: 1000 to 10000 nM, at most 100 nM and “+++ (“+++” represents a ratio of >100)”.
Compound `COCC1(Nc2ncc3c(-c4ccc(CN5CCN(C)CC5)cc4)cc(C4CCC(O)CC4)n3n2)CC1` (stereo not drawn) [Compound 149] yielded an IC50 at FLT3 of 100 to 1000 nM. Also, on MERTK, the IC50 was at most 100 nM; the “FLT3/Mer ratio (FLT3 IC50/Mer IC50)” value was “++ (“++” represents a ratio of between 10 and 100)”.
Regarding `COC[C@H](C)Nc1ncc2c(-c3ccc(CN4CCN(C(C)=O)CC4)cc3)cc([C@H]3CC[C@H](O)CC3)n2n1` [Compound 150], the IC50 on FLT3 is 100 to 1000 nM; on MERTK, at most 100 nM. In addition, at MERTK, the “FLT3/Mer ratio (FLT3 IC50/Mer IC50)” value is “++ (“++” represents a ratio of between 10 and 100)”.
As to `COC[C@H](C)Nc1ncc2c(-c3cnn(C4CCOCC4)c3)cc([C@H]3CC[C@H](O)CC3)n2n1` [Compound 151], the IC50 against FLT3 lay within 100 to 1000 nM. Also, at MERTK, the IC50 was at most 100 nM and the “FLT3/Mer ratio (FLT3 IC50/Mer IC50)” value is “+++ (“+++” represents a ratio of >100)”.
For `COC[C@H](C)Nc1ncc2c(-c3cnn(C)c3)cc([C@H]3CC[C@H](O)CC3)n2n1` [Compound 152], in that order: 100 to 1000 nM, at most 100 nM and “+++ (“+++” represents a ratio of >100)”.
For `COC[C@H](C)Nc1ncc2c(-c3cnn(CCN4CCOCC4)c3)cc([C@H]3CC[C@H](O)CC3)n2n1` [Compound 153], in that order: 1000 to 10000 nM, at most 100 nM and “+++ (“+++” represents a ratio of >100)”.
Taken in the same sequence, the figures for `COC[C@H](C)Nc1ncc2c(-c3ccc(CN4CCN(c5nccc(C)n5)CC4)cc3)cc([C@H]3CC[C@H](O)CC3)n2n1` [Compound 154, (trans)-4-(2-(((S)-1-methoxypropan-2-yl)amino)-5-(4-((4-(4-methylpyrimidin-2-yl)piperazin-1-yl)methyl)phenyl)pyrrolo[2,1-f][1,2,4]triazin-7-yl)cyclohexanol] were 100 to 1000 nM, at most 100 nM and “+++ (“+++” represents a ratio of >100)”.
`COC[C@H](C)Nc1ncc2c(-c3ccc(CN4CCN(C)CC4)cc3)cc([C@H]3CC[C@@H](O)CC3)n2n1` [Compound 155]: the IC50 was 100 to 1000 nM on FLT3 and at most 100 nM on MERTK. In addition, at MERTK, the “FLT3/Mer ratio (FLT3 IC50/Mer IC50)” value was “++ (“++” represents a ratio of between 10 and 100)”.
`COC[C@H](C)Nc1ncc2c(-c3ccc([C@@H](C)N4CCOCC4)cc3)cc([C@H]3CC[C@H](O)CC3)n2n1` [Compound 156] gave a concentration for half-maximal inhibition (IC50) on FLT3 of 100 to 1000 nM. Also, at MERTK, the IC50 is at most 100 nM; the “FLT3/Mer ratio (FLT3 IC50/Mer IC50)” value is “++ (“++” represents a ratio of between 10 and 100)”.
For `COC[C@H](C)Nc1ncc2c(-c3ccc([C@H](C)N4CCOCC4)cc3)cc([C@H]3CC[C@H](O)CC3)n2n1` [Compound 157], the IC50 on FLT3 and at MERTK was at most 100 nM each time. Besides, the “FLT3/Mer ratio (FLT3 IC50/Mer IC50)” value on MERTK is “++ (“++” represents a ratio of between 10 and 100)”.
For the compound `COCC(C)Nc1ncc2c(-c3cccc(C(C)N4CCCC4)c3)cc(C3CCC(O)CC3)n2n1` (stereo not drawn) [Compound 158], the IC50 is 100 to 1000 nM on FLT3 and at most 100 nM at MERTK. Also, on MERTK, the “FLT3/Mer ratio (FLT3 IC50/Mer IC50)” value is on record as “+++ (“+++” represents a ratio of >100)”.
Taken in the same sequence, the figures for `CCOC(=O)Cn1cc(-c2cc([C@H]3CC[C@H](O)CC3)n3nc(N[C@@H](C)COC)ncc23)cn1` [Compound 159] were 100 to 1000 nM, at most 100 nM and “+++ (“+++” represents a ratio of >100)”.
Taken in the same sequence, the figures for `COC[C@H](C)Nc1ncc2c(-c3cnn(CC(=O)O)c3)cc([C@H]3CC[C@H](O)CC3)n2n1` [Compound 160] were 1000 to 10000 nM, at most 100 nM and “+++ (“+++” represents a ratio of >100)”.
For `COCCC(C)Nc1ncc2c(-c3ccc(CN4CCCC4)cc3)cc(C3CCC(O)CC3)n2n1` (stereo not drawn) [Compound 161], the IC50 at FLT3 is at most 100 nM. In addition, on MERTK, the IC50 is at most 100 nM; the “FLT3/Mer ratio (FLT3 IC50/Mer IC50)” value was “++ (“++” represents a ratio of between 10 and 100)”.
In the case of `COC[C@H](C)Nc1ncc2c(-c3cnn(CC(=O)N4CCOCC4)c3)cc([C@H]3CC[C@H](O)CC3)n2n1` [Compound 162], the IC50 at FLT3 was 100 to 1000 nM. Further, at MERTK, the IC50 is at most 100 nM and the “FLT3/Mer ratio (FLT3 IC50/Mer IC50)” value is recorded as “+++ (“+++” represents a ratio of >100)”.

These data come from patent publication US11040981B2, “Pyrrolotriazine compounds and methods of inhibiting TAM kinases” (Syros Pharmaceuticals, Inc., priority 2017, dated 2021).
